Assay results: ChEMBL document CHEMBL1201862, “PubChem BioAssay data set” (2004)
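Values below derive from 48-hour exposures of cells grown in 96-well plates, with endpoints linearly interpolated between the two concentrations bracketing the appropriate inhibition level. Here, GI50 denotes the concentration required for 50% inhibition of growth.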 The source made the active and inactive calls. Rule as the data show it: active = GI50 up to about 1.1 µM and inactive = higher.

How the values were obtained:
Test in all cases: NCI anticancer screen, dose series, 48 h
[1] = system: EKVX
[2] = system: HCT-116
[3] = system: NCI-H23
[4] = system: U-251
[5] = system: OVCAR-4
[6] = system: HCC 2998
[7] = system: IGROV-1
[8] = system: SW-620
[9] = system: SF-539
[10] = system: SK-MEL-2
[11] = system: SK-OV-3
[12] = system: SF-268
[13] = system: SNB-19
[14] = system: CAKI-1
[15] = system: MOLT-4
[16] = system: SNB-75
[17] = system: CCRF-CEM
[18] = system: LOX IMVI
[19] = system: HOP-92
[20] = system: A498

Structure (SMILES)	GI50 [1]	GI50 [2]	GI50 [3]	GI50 [4]	GI50 [5]	GI50 [6]	GI50 [7]	GI50 [8]	GI50 [9]	GI50 [10]	GI50 [11]	GI50 [12]	GI50 [13]	GI50 [14]	GI50 [15]	GI50 [16]	GI50 [17]	GI50 [18]	GI50 [19]	GI50 [20]
O=C(Nc1ccc(F)cc1)C(=O)C(C(=O)c1ccccc1F)C1OC(=O)c2ccccc21 (stereo not drawn)	68.4 µM (inactive)	45.8 µM (inactive)	> 100 µM (inactive)	24 µM (inactive)	55.3 µM (inactive)	38.5 µM (inactive)	> 100 µM (inactive)	58.6 µM (inactive)	31 µM (inactive)	54.1 µM (inactive)	66.5 µM (inactive)	50 µM (inactive)	39.4 µM (inactive)	> 100 µM (inactive)	14.9 µM (inactive)	43.7 µM (inactive)	17.6 µM (inactive)	35.6 µM (inactive)	> 100 µM (inactive)	> 100 µM (inactive)
CCOCc1cc(=O)c2c(O)cc3c(c2o1)CCC(C)(C)O3	> 100 µM (inactive)	–	> 100 µM (inactive)	> 100 µM (inactive)	–	–	> 100 µM (inactive)	> 100 µM (inactive)	> 100 µM (inactive)	> 100 µM (inactive)	> 100 µM (inactive)	> 100 µM (inactive)	> 100 µM (inactive)	> 100 µM (inactive)	> 100 µM (inactive)	> 100 µM (inactive)	> 100 µM (inactive)	> 100 µM (inactive)	4.86 µM (inactive)	> 100 µM (inactive)
O=[S@@]1Nc2ccc(Br)cc2S1	41.6 µM (inactive)	4.66 µM (inactive)	25.2 µM (inactive)	5.18 µM (inactive)	–	–	53 µM (inactive)	0.74 µM (active)	3.94 µM (inactive)	4.67 µM (inactive)	22.5 µM (inactive)	2.44 µM (inactive)	2.77 µM (inactive)	1.15 µM (inactive)	6.47 µM (inactive)	> 100 µM (inactive)	1.64 µM (inactive)	0.437 µM (active)	> 100 µM (inactive)	–
CCOC(=O)C(Cc1c(-c2[nH]c3ccccc3c2CC(NC(=O)CNC(C)=O)C(=O)OCC)[nH]c2ccccc12)NC(=O)CNC(C)=O (stereo not drawn)	> 100 µM (inactive)	> 100 µM (inactive)	> 100 µM (inactive)	> 100 µM (inactive)	> 100 µM (inactive)	23.1 µM (inactive)	> 100 µM (inactive)	> 100 µM (inactive)	–	18.6 µM (inactive)	> 100 µM (inactive)	45.5 µM (inactive)	> 100 µM (inactive)	> 100 µM (inactive)	53.2 µM (inactive)	22.1 µM (inactive)	> 100 µM (inactive)	–	26.3 µM (inactive)	65 µM (inactive)
Clc1ccc(N/N=C(\c2ccccc2)c2ccccn2)nc1	< 0.01 µM (active)	< 0.0148 µM (active)	0.0526 µM (active)	0.031 µM (active)	3.04 µM (inactive)	3.81 µM (inactive)	0.0239 µM (active)	< 0.01 µM (active)	0.622 µM (active)	3.85 µM (inactive)	0.282 µM (active)	0.0258 µM (active)	1.17 µM (inactive)	< 0.01 µM (active)	< 0.01 µM (active)	0.316 µM (active)	< 0.01 µM (active)	–	0.101 µM (active)	49.8 µM (inactive)
CC(=O)N(C(=O)CC(=O)N1N=C(C)C(/N=N/c2cccc([N+](=O)[O-])c2)C1=O)c1ccc(Cl)cc1 (stereo not drawn)	–	> 10 µM (inactive)	7.03 µM (inactive)	> 10 µM (inactive)	> 10 µM (inactive)	> 10 µM (inactive)	> 10 µM (inactive)	> 10 µM (inactive)	> 10 µM (inactive)	–	> 10 µM (inactive)	> 10 µM (inactive)	> 10 µM (inactive)	> 10 µM (inactive)	–	> 10 µM (inactive)	> 10 µM (inactive)	> 10 µM (inactive)	> 10 µM (inactive)	–
Cc1cc(C)c(C2=NO[C@@H]3[C@H]2C(=O)C=C2N(Cc4ccccc4)CCO[C@@]23O)c(C)c1	> 100 µM (inactive)	> 100 µM (inactive)	> 100 µM (inactive)	> 100 µM (inactive)	> 100 µM (inactive)	> 100 µM (inactive)	> 100 µM (inactive)	> 100 µM (inactive)	> 100 µM (inactive)	> 100 µM (inactive)	> 100 µM (inactive)	> 100 µM (inactive)	> 100 µM (inactive)	1 µM (active)	> 100 µM (inactive)	> 94.2 µM (inactive)	> 100 µM (inactive)	> 100 µM (inactive)	> 100 µM (inactive)	> 100 µM (inactive)
CCOC(=O)c1nc2ccc(OC)cc2c2c1Cc1ccccc1-2	–	8.95 µM (inactive)	> 100 µM (inactive)	> 100 µM (inactive)	49.8 µM (inactive)	87.1 µM (inactive)	> 100 µM (inactive)	> 100 µM (inactive)	84.9 µM (inactive)	> 100 µM (inactive)	–	> 100 µM (inactive)	> 100 µM (inactive)	> 100 µM (inactive)	> 100 µM (inactive)	81.5 µM (inactive)	–	> 100 µM (inactive)	–	–
CC1CC=CC(O)C1 (stereo not drawn)	> 100 µM (inactive)	> 100 µM (inactive)	> 100 µM (inactive)	> 100 µM (inactive)	> 100 µM (inactive)	> 100 µM (inactive)	> 100 µM (inactive)	> 100 µM (inactive)	> 100 µM (inactive)	> 100 µM (inactive)	> 100 µM (inactive)	> 100 µM (inactive)	> 100 µM (inactive)	–	> 100 µM (inactive)	> 93.5 µM (inactive)	> 100 µM (inactive)	> 100 µM (inactive)	> 100 µM (inactive)	> 100 µM (inactive)
C[C@H](C(=O)O)C(=O)NC(=O)N(Cc1ccccc1)N=O	> 100 µM (inactive)	> 100 µM (inactive)	–	> 100 µM (inactive)	> 100 µM (inactive)	> 100 µM (inactive)	> 100 µM (inactive)	> 100 µM (inactive)	> 100 µM (inactive)	> 100 µM (inactive)	> 100 µM (inactive)	> 100 µM (inactive)	> 100 µM (inactive)	> 100 µM (inactive)	> 100 µM (inactive)	98.4 µM (inactive)	67.1 µM (inactive)	> 100 µM (inactive)	–	> 100 µM (inactive)
COC(=O)/C=C\n1nc(Br)c(=O)[nH]c1=O	> 100 µM (inactive)	–	> 100 µM (inactive)	> 100 µM (inactive)	> 100 µM (inactive)	> 100 µM (inactive)	> 100 µM (inactive)	> 100 µM (inactive)	> 100 µM (inactive)	> 100 µM (inactive)	–	> 100 µM (inactive)	> 100 µM (inactive)	> 100 µM (inactive)	–	> 100 µM (inactive)	> 100 µM (inactive)	> 100 µM (inactive)	> 100 µM (inactive)	> 100 µM (inactive)
O=S(O)c1cc(Cl)cc(Cl)c1O	> 100 µM (inactive)	> 100 µM (inactive)	> 100 µM (inactive)	> 100 µM (inactive)	> 100 µM (inactive)	> 100 µM (inactive)	–	–	> 100 µM (inactive)	> 100 µM (inactive)	> 100 µM (inactive)	> 100 µM (inactive)	> 100 µM (inactive)	–	> 100 µM (inactive)	75.9 µM (inactive)	> 100 µM (inactive)	> 100 µM (inactive)	–	> 100 µM (inactive)
CN(C)CCNC(=O)c1ccc(Cl)c2ccc(-c3ccccc3)nc12	–	1.88 µM (inactive)	5.38 µM (inactive)	2.93 µM (inactive)	3.54 µM (inactive)	4.67 µM (inactive)	3.48 µM (inactive)	2.19 µM (inactive)	3.66 µM (inactive)	7.67 µM (inactive)	4.7 µM (inactive)	4.45 µM (inactive)	3.06 µM (inactive)	2.69 µM (inactive)	1.82 µM (inactive)	3.57 µM (inactive)	2.16 µM (inactive)	2.34 µM (inactive)	2.02 µM (inactive)	5.16 µM (inactive)
O=c1[nH]cnc2sc(=S)c3c(c12)CCC3	47.6 µM (inactive)	31.3 µM (inactive)	23.5 µM (inactive)	> 100 µM (inactive)	33.5 µM (inactive)	–	15.8 µM (inactive)	21.6 µM (inactive)	> 100 µM (inactive)	> 100 µM (inactive)	> 100 µM (inactive)	> 100 µM (inactive)	48.5 µM (inactive)	19.3 µM (inactive)	11.7 µM (inactive)	> 100 µM (inactive)	21 µM (inactive)	24.7 µM (inactive)	23.8 µM (inactive)	–
O=S(O)c1cc(Cl)cc(Cl)c1OCc1ccccc1	> 100 µM (inactive)	> 100 µM (inactive)	> 100 µM (inactive)	> 100 µM (inactive)	> 100 µM (inactive)	> 100 µM (inactive)	–	–	> 100 µM (inactive)	> 100 µM (inactive)	> 100 µM (inactive)	> 100 µM (inactive)	> 100 µM (inactive)	–	> 100 µM (inactive)	> 100 µM (inactive)	> 100 µM (inactive)	> 100 µM (inactive)	–	> 100 µM (inactive)
OCC1C2C=CC(O2)[C@H]1CO (stereo partly drawn)	> 100 µM (inactive)	> 100 µM (inactive)	–	> 100 µM (inactive)	> 100 µM (inactive)	> 100 µM (inactive)	> 100 µM (inactive)	> 100 µM (inactive)	> 100 µM (inactive)	–	> 100 µM (inactive)	> 100 µM (inactive)	> 100 µM (inactive)	> 100 µM (inactive)	> 100 µM (inactive)	> 100 µM (inactive)	78.7 µM (inactive)	> 100 µM (inactive)	> 100 µM (inactive)	> 100 µM (inactive)
